Test results from PubChem BioAssay AID248 (DTP/NCI, 2004).
Values joined by “and” are separate entries in the source; they are usually repeats but may differ in a detail not shown here. Equal entries are not always repeated. Toxic doses and inconclusive results are not listed.

System: L1210 leukemia ip in BDF1 mice, survival T/C
Experiment: NCI In Vivo Anticancer Drug Screen. Data for tumor model L1210 Leukemia (intraperitoneal) in B6D2F1 (BDF1) mice
Conditions: endpoint: mean survival time, higher = longer survival
Procedure, shortened: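 Read-out is survival time, reported as the treated-group measurement over the vehicle-control measurement.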

[1] = dose: 100.0 mg/kg/injection, schedule: Q01DX001 (ip), vehicle: saline
[2] = dose: 200.0 mg/kg/injection, schedule: Q01DX001 (ip), vehicle: saline
[3] = dose: 400.0 mg/kg/injection, schedule: Q01DX001 (ip), vehicle: saline
[4] = dose: 100.0 mg/kg/injection, schedule: Q01DX009 (ip), vehicle: Klucel (hydroxypropylcellulose) (HPC)
[5] = dose: 200.0 mg/kg/injection, schedule: Q01DX009 (ip), vehicle: Klucel (hydroxypropylcellulose) (HPC)
[6] = dose: 400.0 mg/kg/injection, schedule: Q01DX009 (ip), vehicle: Klucel (hydroxypropylcellulose) (HPC)
[7] = dose: 50.0 mg/kg/injection, schedule: Q01DX001 (ip), vehicle: Klucel (hydroxypropylcellulose) (HPC)
[8] = dose: 100.0 mg/kg/injection, schedule: Q01DX001 (ip), vehicle: Klucel (hydroxypropylcellulose) (HPC)
[9] = dose: 200.0 mg/kg/injection, schedule: Q01DX001 (ip), vehicle: Klucel (hydroxypropylcellulose) (HPC)
[10] = dose: 100.0 mg/kg/injection, schedule: Q04DX003 (ip), vehicle: Klucel (hydroxypropylcellulose) (HPC)
[11] = dose: 200.0 mg/kg/injection, schedule: Q04DX003 (ip), vehicle: Klucel (hydroxypropylcellulose) (HPC)
[12] = dose: 100.0 mg/kg/injection, schedule: Q04DX003 (ip), vehicle: saline
[13] = dose: 200.0 mg/kg/injection, schedule: Q04DX003 (ip), vehicle: saline
[14] = dose: 400.0 mg/kg/injection, schedule: Q04DX003 (ip), vehicle: saline

## CCC[CH2][Sn]([C]#[C][Sn]([CH2]CCC)([CH2]CCC)[CH2]CCC)([CH2]CCC)[CH2]CCC
dose: 0.39 mg/kg/injection, schedule: Q01DX009 (ip), vehicle: saline
  T/C: 94 % of control
dose: 0.78 mg/kg/injection, schedule: Q01DX009 (ip), vehicle: saline
  T/C: 94 % of control
dose: 1.56 mg/kg/injection, schedule: Q01DX009 (ip), vehicle: saline
  T/C: 97 % of control and 102 % of control
dose: 6.25 mg/kg/injection, schedule: Q01DX009 (ip), vehicle: Klucel (hydroxypropylcellulose) (HPC)
  T/C: 88 % of control
dose: 25.0 mg/kg/injection, schedule: Q04DX002 (ip), vehicle: saline
  T/C: 94 % of control

## [O-][n+]1ccccc1CCSCCc1cccc[n+]1[O-]
[1]
  T/C: 101 % of control
[2]
  T/C: 88 % of control
[3]
  T/C: 97 % of control

## CC(=O)/C=C/c1ccc([N+](=O)[O-])cc1
dose: 100.0 mg/kg/injection, schedule: Q04DX003 (ip), vehicle: saline sonified
  T/C: 95 % of control
dose: 200.0 mg/kg/injection, schedule: Q04DX003 (ip), vehicle: saline sonified
  T/C: 89 % of control
dose: 400.0 mg/kg/injection, schedule: Q04DX003 (ip), vehicle: saline sonified
  T/C: 92 % of control

## CCOC(=O)c1ccc2c(ccc[n+]2C)c1
dose: 75.0 mg/kg/injection, schedule: Q01DX001 (ip), vehicle: saline
  T/C: 97 % of control
dose: 75.0 mg/kg/injection, schedule: Q04DX003 (ip), vehicle: saline
  T/C: 107 % of control
dose: 150.0 mg/kg/injection, schedule: Q01DX001 (ip), vehicle: saline
  T/C: 97 % of control
dose: 150.0 mg/kg/injection, schedule: Q04DX003 (ip), vehicle: saline
  T/C: 105 % of control
dose: 300.0 mg/kg/injection, schedule: Q01DX001 (ip), vehicle: saline
  T/C: 95 % of control

## CC[n+]1ccccc1-c1ccc(NC(=O)c2ccc(C(=O)Nc3ccc(-c4ccccn4)cc3)cc2)cc1
dose: 0.75 mg/kg/injection, schedule: Q01DX Z (ip), vehicle: saline
  T/C: 120 % of control
dose: 2.6 mg/kg/injection, schedule: Q01DX Z (ip), vehicle: saline
  T/C: 194 % of control and 213 % of control
dose: 2.9 mg/kg/injection, schedule: Q01DX001 (ip), vehicle: saline
  T/C: 116 % of control
dose: 4.0 mg/kg/injection, schedule: Q01DX Z (ip), vehicle: saline
  T/C: 176 % of control
dose: 4.4 mg/kg/injection, schedule: Q01DX001 (ip), vehicle: saline
  T/C: 124 % of control
dose: 6.0 mg/kg/injection, schedule: Q01DX Z (ip), vehicle: saline
  T/C: 170 % of control
dose: 7.0 mg/kg/injection, schedule: Q01DX Z (oral), vehicle: saline
  T/C: 103 % of control
dose: 14.0 mg/kg/injection, schedule: Q01DX Z (ip), vehicle: saline
  T/C: 100 % of control
dose: 15.0 mg/kg/injection, schedule: Q01DX Z (oral), vehicle: saline
  T/C: 100 % of control
dose: 20.0 mg/kg/injection, schedule: Q01DX001 (ip), vehicle: saline
  T/C: 164 % of control
dose: 22.0 mg/kg/injection, schedule: Q01DX Z (ip), vehicle: saline
  T/C: 102 % of control
dose: 30.0 mg/kg/injection, schedule: Q01DX Z (oral), vehicle: saline
  T/C: 102 % of control
dose: 35.0 mg/kg/injection, schedule: Q01DX Z (ip), vehicle: saline
  T/C: 88 % of control
dose: 40.0 mg/kg/injection, schedule: Q01DX001 (ip), vehicle: saline
  T/C: 153 % of control and 191 % of control

## CC(=O)CC(=O)N(N=O)c1ccccc1C
[1]
  T/C: 104 % of control
[2]
  T/C: 95 % of control

## O=[N+]([O-])c1ccc(NC(=S)Nc2cccc(C(F)(F)F)c2)cc1
[4]
  T/C: 90 % of control
[5]
  T/C: 91 % of control
[6]
  T/C: 100 % of control

## C/C(=C1/SC(=S)NC1=O)c1ccccc1
[1]
  T/C: 102 % of control

## CCOC(=O)C(C)NC(=O)C(C)NC(=O)OCc1ccccc1 (stereo not given)
dose: 100.0 mg/kg/injection, schedule: Q01DX009 (ip), vehicle: gum acacia
  T/C: 101 % of control
dose: 100.0 mg/kg/injection, schedule: Q04DX003 (ip), vehicle: gum acacia
  T/C: 103 % of control
dose: 200.0 mg/kg/injection, schedule: Q01DX009 (ip), vehicle: gum acacia
  T/C: 93 % of control
dose: 200.0 mg/kg/injection, schedule: Q04DX003 (ip), vehicle: gum acacia
  T/C: 101 % of control
dose: 400.0 mg/kg/injection, schedule: Q01DX009 (ip), vehicle: gum acacia
  T/C: 87 % of control
dose: 400.0 mg/kg/injection, schedule: Q04DX003 (ip), vehicle: gum acacia
  T/C: 92 % of control

## NC(=O)C(F)(F)C(F)(F)C(F)(F)F
[7]
  T/C: 97 % of control
[8]
  T/C: 97 % of control
[9]
  T/C: 103 % of control

## CC(=O)N(N=O)c1ccc([N+](=O)[O-])cc1Cl
dose: 50.0 mg/kg/injection, schedule: Q01DX001 (ip), vehicle: saline
  T/C: 102 % of control
[1]
  T/C: 102 % of control
[2]
  T/C: 100 % of control
[3]
  T/C: 102 % of control

## COc1ccc(OC)c(NC(=O)c2cccc3ccccc23)c1
dose: 50.0 mg/kg/injection, schedule: Q01DX001 (ip), vehicle: saline with Tween-80
  T/C: 102 % of control
dose: 100.0 mg/kg/injection, schedule: Q01DX001 (ip), vehicle: saline with Tween-80
  T/C: 91 % of control
dose: 100.0 mg/kg/injection, schedule: Q01DX009 (ip), vehicle: saline with Tween-80
  T/C: 93 % of control and 96 % of control
dose: 100.0 mg/kg/injection, schedule: Q04DX002 (ip), vehicle: saline with Tween-80
  T/C: 100 % of control and 91 % of control
dose: 100.0 mg/kg/injection, schedule: Q04DX003 (ip), vehicle: saline with Tween-80
  T/C: 95 % of control
dose: 200.0 mg/kg/injection, schedule: Q01DX001 (ip), vehicle: saline with Tween-80
  T/C: 95 % of control
dose: 200.0 mg/kg/injection, schedule: Q01DX009 (ip), vehicle: saline with Tween-80
  T/C: 105 % of control and 90 % of control
dose: 200.0 mg/kg/injection, schedule: Q04DX002 (ip), vehicle: saline with Tween-80
  T/C: 113 % of control and 91 % of control
dose: 200.0 mg/kg/injection, schedule: Q04DX003 (ip), vehicle: saline with Tween-80
  T/C: 95 % of control
dose: 400.0 mg/kg/injection, schedule: Q01DX009 (ip), vehicle: saline with Tween-80
  T/C: 87 % of control and 91 % of control
dose: 400.0 mg/kg/injection, schedule: Q04DX002 (ip), vehicle: saline with Tween-80
  T/C: 94 % of control and 95 % of control
dose: 400.0 mg/kg/injection, schedule: Q04DX003 (ip), vehicle: saline with Tween-80
  T/C: 94 % of control

## CSc1ccc(N2C(=O)C3C(C2=O)C2(Cl)C(Cl)=C(Cl)C3(Cl)C2(Cl)Cl)cc1 (stereo not given)
[4]
  T/C: 105 % of control
[10]
  T/C: 101 % of control
[5]
  T/C: 100 % of control
[11]
  T/C: 104 % of control
[6]
  T/C: 103 % of control
dose: 400.0 mg/kg/injection, schedule: Q04DX003 (ip), vehicle: Klucel (hydroxypropylcellulose) (HPC)
  T/C: 98 % of control

## CC(C)CC[NH-].CC(C)CC[NH-].[Cl][Pt+2][Cl]
dose: 50.0 mg/kg/injection, schedule: Q04DX003 (ip), vehicle: saline
  T/C: 100 % of control and 105 % of control
[12]
  T/C: 92 % of control and 105 % of control
[13]
  T/C: 103 % of control and 117 % of control
[14]
  T/C: 97 % of control and 88 % of control

## O=S1(=O)C=CCC1
dose: 50.0 mg/kg/injection, schedule: Q01DX001 (ip), vehicle: carboxymethylcellulose (CMC)
  T/C: 100 % of control
dose: 100.0 mg/kg/injection, schedule: Q01DX001 (ip), vehicle: carboxymethylcellulose (CMC)
  T/C: 94 % of control
dose: 100.0 mg/kg/injection, schedule: Q01DX009 (ip), vehicle: saline
  T/C: 96 % of control
[12]
  T/C: 100 % of control
dose: 200.0 mg/kg/injection, schedule: Q01DX001 (ip), vehicle: carboxymethylcellulose (CMC)
  T/C: 103 % of control
dose: 200.0 mg/kg/injection, schedule: Q01DX009 (ip), vehicle: saline
  T/C: 102 % of control
[13]
  T/C: 94 % of control
[14]
  T/C: 100 % of control

## Cc1c(N)nc(=S)[nH]c1C(=O)O
[7]
  T/C: 95 % of control
dose: 50.0 mg/kg/injection, schedule: Q04DX003 (ip), vehicle: Klucel (hydroxypropylcellulose) (HPC)
  T/C: 91 % of control
[8]
  T/C: 97 % of control
[10]
  T/C: 105 % of control
[9]
  T/C: 106 % of control
[11]
  T/C: 94 % of control

## CCC(=O)NC1Cc2cc(C)cc(C)c21 (stereo not given)
dose: 25.0 mg/kg/injection, schedule: Q04DX002 (ip), vehicle: Klucel (hydroxypropylcellulose) (HPC)
  T/C: 113 % of control
dose: 50.0 mg/kg/injection, schedule: Q04DX002 (ip), vehicle: Klucel (hydroxypropylcellulose) (HPC)
  T/C: 92 % of control
dose: 100.0 mg/kg/injection, schedule: Q04DX002 (ip), vehicle: Klucel (hydroxypropylcellulose) (HPC)
  T/C: 100 % of control

## CCOC(=O)NNc1ccccc1
[1]
  T/C: 102 % of control
[2]
  T/C: 97 % of control
